Values of other authors in patent US5977116A, “Piperazine, piperidine and tetrahydropyridine derivatives” (Merck Sharp & Dohme Ltd., priority 1995, dated 1999).

Tested on: human 5-HT1Dα and 5-HT1Dβ receptor subtypes
Settings: cf. WO-A-91/17174, Table 1

CNS(=O)(=O)Cc1ccc2[nH]cc(CCN(C)C)c2c1 [sumatriptan]
discrimination between human 5-HT1Dα and 5-HT1Dβ receptor subtypes: barely discriminates
